{"source": "patent US20160324916A1", "about": "“PROCESS FOR THE SYNCHRONIZATION OF OVULATION FOR TIMED BREEDING WITHOUT HEAT DETECTION” (priority 2003, published 2016)", "key": {"[1]": {"test_system": "postpartum sows", "assay": "Single timed injection 96 hours post-weaning and single timed insemination without estrus detection in postpartum sows (Example 3)", "assay_type": "in vivo, swine", "details": "50 mcg in SAIB 96 hours post-weaning, single timed insemination, no estrus detection", "method": "Approximately 170 postpartum sows were randomly divided into two equal groups comprised of controls and treated. Following weaning, the controls were detected for estrus and bred following the normal standard operating procedures for the farms on which they resided. The treated sows received a 50 mcg dose of deslorelin in SAIB at 96 hours post-weaning and were bred with a single insemination 28+/−2 hours later with no regard to estrus detection. The sows were examined for pregnancy by ultrasound at 21 days and slaughtered around 28 days post breeding. The entire reproductive tract was removed and corpora lutea and embryos were counted."}, "[2]": {"test_system": "mature postpartum sows", "assay": "Intravulvar injection at estrus detection in mature postpartum sows, AI breeding (Example 2)", "assay_type": "in vivo, swine", "details": "50 mcg intravulvar at estrus detection", "method": "Sows were assigned randomly in blocks of two to either control or to be injected intravulvar with 50 mcg of deslorelin in SAIB at the time of estrus detection for sows first detected in estrus in the a.m. and 12 hours later for those first detected in estrus in the p.m. Treated animals were bred AI upon detected estrus and again 24 hours later if still in estrus. Controls received a saline injection on first detected estrus behavior estrus detection and were bred according to the farm's normal procedures."}}, "data": [{"smiles": "CCNC(=O)[C@@H]1CCCN1C(=O)[C@H](CCCN=C(N)N)NC(=O)[C@H](CC(C)C)NC(=O)[C@@H](Cc1c[nH]c2ccccc12)NC(=O)[C@H](Cc1ccc(O)cc1)NC(=O)[C@H](CO)NC(=O)[C@H](Cc1c[nH]c2ccccc12)NC(=O)[C@H](Cc1cnc[nH]1)NC(=O)[C@@H]1CCC(=O)N1", "note": "[Deslorelin, deslorelin]", "values": [{"measurement": "Pregnancy Rate", "setting": "[1]", "value": 71, "unit": "%"}, {"measurement": "Pregnancy rates, Control versus Treated", "setting": "[2]", "value": "no significant difference"}]}]}
